Measured values as given in patent publication US20230279016A1, “Tetrahydropyrazolopyrimidines and Related Analogs for Inhibiting YAP/TAZ-TEAD” (THE KATHOLIEKE UNIVERSITEIT LEUVEN, priority 2021, published 2023).

Experiments:
Assay type in all cases: cell-based
[1] = system: NCI-H226 mesothelioma cell line; experiment: Mesothelioma cell line proliferation assay, NCI-H226; conditions: NCI-H226, 6 days with compound, cell viability by ATPlite
Protocol: (§1) Mesothelioma cell lines, NCI-H226 and NCI-H2052 (all sourced from the ATCC cell culture collection) are plated in 96-well plates (Corning® 96 Well White Polystyrene Microplate clear flat bottom, white polystyrene (TC-Treated)), at 1500 cells/well in full medium (RPMI 1640 ATCC modification with L-glutamine, HEPES, Phenol Red, Sodium Pyruvate, High glucose, Low sodium bicarbonate and 10% fetal bovine serum). Cells are incubated overnight at 37° C. in an incubator with 5% CO2. Then compounds, dissolved in DMSO, are added in dose-response. Cells are incubated with compound dilutions for another 6 days at 37° C. in an incubator with 5% CO2. Cell viability is quantitated using the ATPlite kit (Perkin-Elmer) and the luminescence is read-out using an Envision instrument (Perkin-Elmer). The amount of relative light units produced using the ATPlite kit is used to calculated percent of inhibition.
(§2) The activities of example compounds tested are depicted in the table below. The activity ranges A, B and C refer to EC50 values in the mesothelioma cell line proliferation assay as described as follows: “A”: EC50 <1 μM; “B” : 1 μM EC50 ≤10 μM and “C” : EC50 >10 μM. NT: not tested.

[2] = system: YAP/TAZ-TEAD transcription; experiment: Reporter gene assay for measuring the inhibition of YAP/TAZ-TEAD transcription (TEAD-responsive element luciferase reporter in Hek293T cells); conditions: Hek293T cells transiently transfected with TEAD-responsive element luciferase reporter, 24 hours incubation
In short: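 Hek293T cells transiently transfected with TEAD-responsive luciferase reporter, exposed to compound for 24 h at 37° C/5% CO2, then read by luminescence. Percent inhibition normalized to vehicle (0%) and positive control inhibitor (100%); EC50 reported as activity ranges.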

[3] = system: NCI-H2052 mesothelioma cell line; experiment: Mesothelioma cell line proliferation assay, NCI-H2052; conditions: NCI-H2052, 6 days with compound, cell viability by ATPlite
Protocol: as §1, §2

EC50 ([1]; Homo sapiens, NCI-H226, 144 h) [nM]	EC50 ([2]; Homo sapiens, HEK-293T, 24 h) [nM]	EC50 ([3]; Homo sapiens, NCI-H2052, 144 h) [nM]	EC50 [1] [nM]	EC50 [2] [nM]	EC50 [3] [nM]	Structure (SMILES)
< 1000	< 1000	< 1000				C=CC(=O)NCC1CN(c2ccc(C(F)(F)F)cn2)c2ccnn2C1 (single isomer, unassigned) [Cpd. No. 008-En1, (R)- or (S)-N-((4-(5-(trifluoromethyl)pyridin-2-yl)-4,5,6,7-tetrahydropyrazolo[1,5-a]pyrimidin-6-yl)methyl)acrylamide]
			< 1000	< 1000	< 1000	C=CC(=O)NCC1CN(c2ccc(C(F)(F)F)cn2)c2ccnn2C1 (single isomer, unassigned) [Cpd. No. 008-En2, (R)- or (S)-N-((4-(5-(trifluoromethyl)pyridin-2-yl)-4,5,6,7-tetrahydropyrazolo[1,5-a]pyrimidin-6-yl)methyl)acrylamide]
			< 1000	< 1000	< 1000	C=CC(=O)NCC1CN(c2ccc(OC(F)(F)F)cc2)c2ccnn2C1 (single isomer, unassigned) [Cpd. No. 011-En1, (R)- or (S)-N-((4-(4-(trifluoromethoxy)phenyl)-4,5,6,7-tetrahydropyrazolo[1,5-a]pyrimidin-6-yl)methyl)acrylamide]
			< 1000	< 1000	> 10000	C=CC(=O)NCC1CN(c2ccc(OC(F)(F)F)cc2)c2ccnn2C1 (single isomer, unassigned) [Cpd. No. 011-En2, (R)- or (S)-N-((4-(4-(trifluoromethoxy)phenyl)-4,5,6,7-tetrahydropyrazolo[1,5-a]pyrimidin-6-yl)methyl)acrylamide]
			< 1000	< 1000	< 1000	C=CC(=O)NCC1CN(c2ccc(OC(F)F)cc2)c2ccnn2C1 (single isomer, unassigned) [Cpd. No. 012-En1, (R)- or (S)-N-((4-(4-(difluoromethoxy)phenyl)-4,5,6,7-tetrahydropyrazolo[1,5-a]pyrimidin-6-yl)methyl)acrylamide]
			< 1000	< 1000	> 10000	C=CC(=O)NCC1CN(c2ccc(OC(F)F)cc2)c2ccnn2C1 (single isomer, unassigned) [Cpd. No. 012-En2, (R)- or (S)-N-((4-(4-(difluoromethoxy)phenyl)-4,5,6,7-tetrahydropyrazolo[1,5-a]pyrimidin-6-yl)methyl)acrylamide]
< 1000	< 1000	< 1000				C=CC(=O)NCC1CN(c2ccc(C(C)(C)C)cc2)c2ccnn2C1 (single isomer, unassigned) [Cpd. No. 014-En1, (R)- or (S)-N-((4-(4-(tert-butyl)phenyl)-4,5,6,7-tetrahydropyrazolo[1,5-a]pyrimidin-6-yl)methyl)acrylamide]
			< 1000	< 1000	< 1000	C=CC(=O)NCC1CN(c2ccc(C(F)(F)F)cc2F)c2ccnn2C1 (single isomer, unassigned) [Cpd. No. 016-En1, (R)- or (S)-N-((4-(2-fluoro-4-(trifluoromethyl)phenyl)-4,5,6,7-tetrahydropyrazolo[1,5-a]pyrimidin-6-yl)methyl)acrylamide]
			< 1000	< 1000	> 10000	C=CC(=O)NCC1CN(c2ccc(C(F)(F)F)cc2F)c2ccnn2C1 (single isomer, unassigned) [Cpd. No. 016-En2, (R)- or (S)-N-((4-(2-fluoro-4-(trifluoromethyl)phenyl)-4,5,6,7-tetrahydropyrazolo[1,5-a]pyrimidin-6-yl)methyl)acrylamide]
< 1000		< 1000				C=CC(=O)NCC1CN(c2ccc(OC(F)(F)F)c(F)c2)c2ccnn2C1 (single isomer, unassigned) [Cpd. No. 018-En1, (R)- or (S)-N-((4-(3-fluoro-4-(trifluoromethoxy)phenyl)-4,5,6,7-tetrahydropyrazolo[1,5-a]pyrimidin-6-yl)methyl)acrylamide]
			< 1000		< 1000	C=CC(=O)NCC1CN(c2ccc(OC(F)(F)F)c(F)c2)c2ccnn2C1 (single isomer, unassigned) [Cpd. No. 018-En2, (R)- or (S)-N-((4-(3-fluoro-4-(trifluoromethoxy)phenyl)-4,5,6,7-tetrahydropyrazolo[1,5-a]pyrimidin-6-yl)methyl)acrylamide]
< 1000	< 1000				< 1000	C=CC(=O)NCC1CN(c2ccc(OC(F)(F)F)cc2F)c2ccnn2C1 (single isomer, unassigned) [Cpd. No. 019-En1, (R)- or (S)-N-((4-(2-fluoro-4-(trifluoromethoxy)phenyl)-4,5,6,7-tetrahydropyrazolo[1,5-a]pyrimidin-6-yl)methyl)acrylamide]
			< 1000	< 1000	> 10000	C=CC(=O)NCC1CN(c2ccc(OC(F)(F)F)cc2F)c2ccnn2C1 (single isomer, unassigned) [Cpd. No. 019-En2, (R)- or (S)-N-((4-(2-fluoro-4-(trifluoromethoxy)phenyl)-4,5,6,7-tetrahydropyrazolo[1,5-a]pyrimidin-6-yl)methyl)acrylamide]
		< 1000	< 1000	< 1000		C=CC(=O)NCC1CN(c2ccc(SC(F)(F)F)cc2)c2ccnn2C1 (single isomer, unassigned) [Cpd. No. 020-En1, (R)- or (S)-N-((4-(4-((trifluoromethyl)thio)phenyl)-4,5,6,7-tetrahydropyrazolo[1,5-a]pyrimidin-6-yl)methyl)acrylamide]
			> 10000	< 1000	1000 to 10000	C=CC(=O)NCC1CN(c2ccc(SC(F)(F)F)cc2)c2ccnn2C1 (single isomer, unassigned) [Cpd. No. 020-En2, (R)- or (S)-N-((4-(4-((trifluoromethyl)thio)phenyl)-4,5,6,7-tetrahydropyrazolo[1,5-a]pyrimidin-6-yl)methyl)acrylamide]
< 1000		< 1000				C=CC(=O)NCC1CN(c2ccc(Br)cc2)c2ccnn2C1 (single isomer, unassigned) [Cpd. No. 021-En2, (R)- or (S)-N-((4-(4-bromophenyl)-4,5,6,7-tetrahydropyrazolo[1,5-a]pyrimidin-6-yl)methyl)acrylamide]
< 1000	< 1000				< 1000	C=CC(=O)NCC1CN(c2ccc(C3CC3)cc2)c2ccnn2C1 (single isomer, unassigned) [Cpd. No. 022-En1, (R)- or (S)-N-((4-(4-cyclopropylphenyl)-4,5,6,7-tetrahydropyrazolo[1,5-a]pyrimidin-6-yl)methyl)acrylamide]
			< 1000	< 1000	> 10000	C=CC(=O)NCC1CN(c2ccc(C3CC3)cc2)c2ccnn2C1 (single isomer, unassigned) [Cpd. No. 022-En2, (R)- or (S)-N-((4-(4-cyclopropylphenyl)-4,5,6,7-tetrahydropyrazolo[1,5-a]pyrimidin-6-yl)methyl)acrylamide]
< 1000		1000 to 10000				C=CC(=O)NCC1CN(c2ccc(OC(F)(F)F)cc2)c2cc(C(F)(F)F)nn2C1 (single isomer, unassigned) [Cpd. No. 035-En2, (R)- or (S)-N-((4-(4-(trifluoromethoxy)phenyl)-2-(trifluoromethyl)-4,5,6,7-tetrahydropyrazolo[1,5-a]pyrimidin-6-yl)methyl)acrylamide]
< 1000		> 10000				C=CC(=O)NCC1CN(CC2CCCCC2)c2ccnn2C1 (single isomer, unassigned) [Cpd. No. 055-En2, (R)- or (S)-N-((4-(cyclohexylmethyl)-4,5,6,7-tetrahydropyrazolo[1,5-a]pyrimidin-6-yl)-methyl)acrylamide]
< 1000		< 1000				C=CC(=O)NC1CN(c2ccc(C(F)(F)F)c(F)c2)c2ccnn2C1 (single isomer, unassigned) [Cpd. No. 064-En1, (R)- or (S)-N-(4-(3-fluoro-4-(trifluoromethyl)phenyl)-4,5,6,7-tetrahydropyrazolo[1,5-a]pyrimidin-6-yl)acrylamide]

Structure (SMILES)	EC50 ([1]; Homo sapiens, NCI-H226, 144 h) [nM]	EC50 ([2]; Homo sapiens, HEK-293T, 24 h) [nM]	EC50 ([3]; Homo sapiens, NCI-H2052, 144 h) [nM]	EC50 [1] [nM]	EC50 [2] [nM]	EC50 [3] [nM]
C=CC(=O)NCC1CN(c2ccc(C(C)C)cc2)c2ccnn2C1 (single isomer, unassigned) [Cpd. No. 013-En1, (R)- or (S)-N-((4-(4-isopropylphenyl)-4,5,6,7-tetrahydropyrazolo[1,5-a]pyrimidin-6-yl)methyl)acrylamide]				< 1000	< 1000	< 1000
C=CC(=O)NCC1CN(c2ccc(C(C)C)cc2)c2ccnn2C1 (single isomer, unassigned) [Cpd. No. 013-En2, (R)- or (S)-N-((4-(4-ispropylphenyl)-4,5,6,7-tetrahydropyrazolo[1,5-a]pyrimidin-6-yl)methyl)acrylamide]				< 1000	< 1000	1000 to 10000
